Measured values published in patent US20210087337A1, “COMPOUNDS, COMPOSITIONS AND METHODS RELATED TO ANTIMICROBIAL APPLICATIONS” (VYOME THERAPEUTICS LIMITED, priority 2016, published 2021).
≈ marks a conversion by molar mass, not a printed value. Where two headings read alike, the source gives them in different places.

How the values were obtained:
HaCat cell line = assay: Cytotoxicity MTT assay; format: cell-based, human
Protocol: Different dilutions of compounds of the present disclosure in DMSO were used for the MTT assay so that the final concentration of DMSO in the assay was <5%. […] After 3 h incubation, MTT was removed and 100 μl of DMSO was added. Absorbance was measured in an ELISA reader at 570 nm. The assay controls were (a) medium control (medium without cells), (b) negative control (medium with cells but without the experimental compound), (iii) positive control (medium with cells and with 50 μM camptothecin). The experiment was done in triplicates and the data plotted as viability of cells in percentage.

[1] = system: S. epidermidis ATCC 35984 biofilm; assay: S. epidermidis biofilm disruption assay (MTT); format: cell-based; details: for EC50: Staphylococcus epidermidis, ATCC35984, read-out: Concentration (mg/ml) to disrupt 50% biofilm
Protocol: Materials: Brain heart infusion broth, S. epidermidis ATCC 35984, 96 well plates, Autoclave, Incubator, 0.05% MTT (3-(4,5-Dimethylthiazol-2-yl)-2,5-Diphenyltetrazolium Bromide) reagent prepared in water, Multiwell Plate Reader.
(§1) Method: S. epidermidis ATCC 35984 was grown in Brain Heart Infusion Agar (BHIA) at 37° C. for 24 h. The loop full of bacterial culture was suspended in sterile water and adjusted the turbidity to 0.1 OD at 600 nm in UV—Visual spectrophotometer (approximately 1.5×10^8) and further diluted (100 times with sterile BHI broth), 100 μL of culture suspension was added into 96 well plate and plates were incubated at 37° C. for 48 h for biofilm formation. The biofilm was washed twice with sterile water to remove the planktonic cells. Then biofilm was treated with 100 μL of BHI broth suspended with various concentrations of compounds of the present disclosure, and plates were further incubated at 37° C. for 24 h. The minimum biofilm disruption concentration (MBDC) was determined by staining the biofilm with MTT reagent incubated plates at 37° C. for 2 h. The precipitate was dissolved in 100 μl of dimethyl sulfoxide (DMSO) and the absorbance was measured at 600 nm in multi well plate reader. The minimum biofilm disruption concentration was calculated as subtracting the MTT OD value of drug treated with 48 h growth control.

[2] = system: E. coli ATCC BAA196 biofilm; assay: E. coli biofilm disruption assay (MTT); format: cell-based; details: for Minimum biofilm disruption concentration: 24 h biofilm, 24 h treatment, MTT
Protocol: Materials: Brain heart infusion broth+1% glucose, Escherichia coli ATCC BAA196, 96 wells plate, Autoclave, Incubator, MTT, Multiwell Plate Reader.
(§2) Method: E. coli ATCC BAA196 was grown in Brain Heart Infusion Agar (BHIA) at 37° C. for 24 h. The loop full of bacterial culture was suspended in sterile water and the turbidity to 0.1 OD at 600 nm in UV—Visual spectrophotometer (approximately 1.5×10^8) and further diluted (100 times with sterile BHI broth+1% glucose), 100 μL of culture suspension was added into 96 well plate and plates were incubated at 37° C. for 24 h for biofilm formation. The biofilm was washed twice with sterile water to remove the planktonic cells. Then biofilm was treated with 100 μL of BHI broth+1% glucose suspended with various concentrations of compounds of the present disclosure, and plates were further incubated at 37° C. for 24 h. The minimum biofilm disruption concentration (MBDC) was determined by staining the biofilm with MTT reagent incubated plates at 37° C. for 2 h, and the precipitate was dissolved in 100 μl of dimethyl sulfoxide (DMSO) and the absorbance was measured at 600 nm in multi well plate reader. The minimum biofilm disruption concentration was calculated by subtracting the MTT OD value of drug treated with 24 h growth control.

[3] = system: biofilm formed by gram positive, gram negative pathogen; assay: Biofilm disruption activity, general statement; format: cell-based; details: embodiment statement
Protocol: as §1, §2

[4] = system: Bacterial and fungal cultures; assay: MIC test, overall antimicrobial activity in words; format: cell-based; details: overall statement on MIC results
Protocol: (§3) Materials: Brain heart infusion broth, Bacterial and fungal cultures, 96 wells plate, Autoclave, Incubator. The microbial strains used in the validation study/testing were procured from MTCC (Chandigarh, India)—S. aureus (MTCC-6908), E. coli (MTCC-1687); NCIM (Pune, India)—E. aerogenes (NCIM-5139); ATCC (USA): S. aureus (ATCC-43300), S. epidermidis (ATCC-35984), P. aeruginosa (ATCC-27853), A. baumanii (ATCC-19606), K. pneumoniae (ATCC-13883), E. coli (ATCC-BAA196); CCARM (Korea)—Candida albicans (CCARM-14009), P. aeruginosa (CCARM-2161) and A. baumanii (CCARM-12001).
(§4) Method: MIC of present molecules were determined by micro broth dilution method as per the Clinical and Laboratory Standards Institute (CLSI) guidelines. Microbial strains were cultured in appropriate media [Brain Heart Infusion Agar (BHIA) for bacteria and Sabouraud dextrose broth (SDB) for Candida] at 37° C. for 24 hours. […] For inoculum, microbial culture turbidity was adjusted to 0.1 optical density (OD) at 600 nm in UV—Visual spectrophotometer (approximately 1.5×10^8 cells/ml) and further diluted (100 times with sterile media). Diluted culture suspension (100 μl) was added to each well except sterility control wells (column 12 of 96 well plate). […] The MIC of the test compounds were determined by observing the lowest concentration of test compound that prevented the visual bacterial growth.

[5] = Water solubility as described; format: physicochemical
S. epidermidis S12-1 = assay: MIC by micro broth dilution (CLSI); format: cell-based; details: Staphylococcus epidermidis, S121
[6] = system: A. baumannii [ATCC 19606]; assay: MIC by micro broth dilution (CLSI); format: cell-based
Protocol: as §3
(§5) Method: MIC of present molecules were determined by micro broth dilution method as per the Clinical and Laboratory Standards Institute (CLSI) guidelines. Microbial strains were cultured in appropriate media [Brain Heart Infusion Agar (BHIA) for bacteria and Sabouraud dextrose broth (SDB) for Candida] at 37° C. for 24 hours. […] For inoculum, microbial culture turbidity was adjusted to 0.1 optical density (OD) at 600 nm in UV—Visual spectrophotometer (approximately 1.5×10^8 cells/ml) and further diluted (100 times with sterile media). Diluted culture suspension (100 μl) was added to each well except sterility control wells (column 12 of 96 well plate). Column 11 of 96 well plate was used as growth control and vehicle control. The plates were incubated at 37° C. for 24 h. The MIC of the test compounds were determined by observing the lowest concentration of test compound that prevented the visual bacterial growth.

S. aureus (ATCC-43300) = assay: MIC by micro broth dilution (CLSI); format: cell-based
Protocol: as §3, §5

S. aureus (MTCC-6908) = assay: MIC by micro broth dilution (CLSI); format: cell-based
Protocol: as §3, §5

[7] = system: P. aeruginosa (ATCC-27853); assay: MIC by micro broth dilution (CLSI); format: cell-based
Protocol: as §3, §5

E. coli (ATCC-BAA196) = assay: MIC by micro broth dilution (CLSI); format: cell-based
Protocol: as §3, §5

E. coli (MTCC-1687) = assay: MIC by micro broth dilution (CLSI); format: cell-based
Protocol: as §3, §5

E. aerogenes (NCIM-5139) = assay: MIC by micro broth dilution (CLSI); format: cell-based
Protocol: as §3, §5

[8] = system: Candida albicans (CCARM-14009); assay: MIC by micro broth dilution (CLSI); format: cell-based; details: for MIC: C. albicans CCARM 14009
Protocol: as §3, §5

[9] = system: K. pneumoniae [ATCC 1388]; assay: MIC by micro broth dilution (CLSI); format: cell-based
Protocol: as §3, §5

[10] = system: S. epidermidis (ATCC-35984); assay: MIC by micro broth dilution (CLSI); format: cell-based
Protocol: as §3, §5

MRSA = assay: MIC test, text summary against MRSA; format: cell-based, S. aureus
Protocol: as §3, §4

E. coli = assay: MIC test, text summary against E. coli (strain not stated); format: cell-based
Protocol: as §3, §4

Gram negative pathogens = assay: MIC test, against Gram negative pathogens; format: cell-based
Protocol: as §3, §4

Gram positive pathogen = assay: MIC test, text summary against Gram positive pathogens; format: cell-based
Protocol: as §3, §4

[11] = 48 h biofilm, 24 h treatment, MTT
[12] = Staphylococcus aureus, MTCC6908, read-out: MIC
[13] = Candida albicans, CCARM14009, read-out: MIC
[14] = Staphylococcus epidermidis, ATCC35984, read-out: MIC

Compound: N=C(NCCCCCCNC(=N)NC(=N)Nc1ccc(Cl)cc1)NC(=N)Nc1ccc(Cl)cc1 [Chlorohexidine, reference compound]
- IC50 in HaCat cell line (HaCat cell line; 48 h, MTT): ~200 µg/mL (≈ 396 µM)

Compound: CCCCCCCCCCCCSC[C@H](NC(C)=O)C(=O)O [SMP-001, N-Acetyl-S-dodecyl-L-cysteine]
- anti-biofilm activity against S. epidermidis [1]: destroy biofilm effectively
- EC50 [1, 11]: 0.02 to 0.125 mg/mL (≈ 60.3 to 377 µM)
- Minimum biofilm disruption concentration [2]: 0.5 to 2.0 mg/mL
- biofilm disruption activity [3]: biofilm disruption activity

Compound: CCCCCCCCC/C=C\CCCCCCCCSC[C@@H](NC(C)=O)C(=O)N(CCCN)CCCN.Cl.Cl [SMP-047, (S,Z)-2-Acetamido-N,N-bis(3-aminopropyl)-3-(nonadec-9-en-1-ylthio)propanamide di-hydrochloride]
- antimicrobial / antibacterial activity [4]: broad spectrum antibacterial activity
- water solubility [5]: water soluble
- MIC (S. epidermidis S12-1): 50 µg/mL
- EC50 [1, 11]: > 2 mg/mL
- MIC ([6]; Acinetobacter baumannii, ATCC19606, read-out: MIC): > 256 µg/mL
- MIC (S. aureus (ATCC-43300); Staphylococcus aureus, ATCC43300, read-out: MIC): 6.25 µg/mL
- MIC (S. aureus (MTCC-6908); [12]): 6.25 µg/mL
- MIC ([7]; Pseudomonas aeruginosa, ATCC27853, read-out: MIC): > 256 µg/mL
- MIC (E. coli (ATCC-BAA196); Escherichia coli, ATCCBAA196, read-out: MIC): 100 µg/mL
- MIC (E. coli (MTCC-1687); Escherichia coli, MTCC1687, read-out: MIC): 0.8 µg/mL
- MIC (E. aerogenes (NCIM-5139); Klebsiella aerogenes, NCIM5139, read-out: MIC): > 256 µg/mL
- antifungal activity against Candida species [8]: potent antifungal activity
- MIC [8, 13]: 50 µg/mL
- MIC ([9]; Klebsiella pneumoniae, ATCC1388, read-out: MIC): > 256 µg/mL
- MIC [10, 14]: 6.25 µg/mL
- antibacterial activity against MRSA (MRSA): potent antibacterial activity
- IC50 (HaCat cell line; Homo sapiens, HaCaT, 48 h, MTT): 200 to 400 µg/mL
- safety profile in HaCaT cell lines (HaCat cell line; compared with PHMB and chlorohexidine): better safety profile
- biofilm disruption activity [3]: biofilm disruption activity
- activity towards resistant E. coli (E. coli): potent

Compound: CCCCCCCCCCCCSC[C@@H](NC(C)=O)C(=O)N(CCCCNC(=O)[C@@H](N)CNC(=N)N)CCCNC(=O)[C@@H](N)CNC(=N)N.Cl [SMP-051]
- antimicrobial / antibacterial activity [4]: broad spectrum antibacterial activity
- Concentration (mg/ml) to disrupt 50% biofilm [1, 11]: >2 mg/mL
- MIC [6]: 128.0 µg/mL
- MIC (S. aureus (ATCC-43300)): 6.25 µg/mL
- MIC (S. aureus (MTCC-6908)): 6.25 µg/mL
- MIC [7]: 16.0 µg/mL
- MIC (E. coli (ATCC-BAA196)): 100 µg/mL
- MIC (E. coli (MTCC-1687)): 1.6 µg/mL
- MIC (E. aerogenes (NCIM-5139)): 8.0 µg/mL
- MIC [8]: 200 µg/mL
- MIC [9]: 8.0 µg/mL
- MIC [10]: 1.6 µg/mL
- IC50 in HaCat cell line (HaCat cell line; 48 h, MTT): ~25.0 µg/mL
- disruption of E. coli biofilm [2]: the best
- Minimum biofilm disruption concentration [2]: 0.25 to 0.5 mg/mL
- biofilm disruption activity [3]: biofilm disruption activity
- activity against Gram negative pathogens (Gram negative pathogens): very efficient
- improvement of antibacterial activity in comparison to SMP-002 (Gram negative pathogens; against Gram negative pathogen): 100-150 fold
- improvement of antibacterial activity in comparison to SMP-002 (Gram positive pathogen): 10-20 fold

Compound: CC(=O)N[C@@H](CS)C(=O)O [NAC, N-acetyl cysteine, reference compound]
- EC50 [1, 11]: > 4 mg/mL

Compound: CCCCCCCCCCCCSC[C@@H](NC(C)=O)C(=O)N(CCCN)CCCN.Cl.Cl [SMP-002, (S)-2-Acetamido-N,N-bis(3-aminopropyl)-3-(dodecylthio)propanamide di-hydrochloride]
- MIC (S. epidermidis S12-1): 25 µg/mL
- anti-biofilm activity against S. epidermidis [1]: maintain anti-biofilm activity like SMP-001
- EC50 [1, 11]: 0.01 mg/mL
- MIC (S. aureus (MTCC-6908); [12]): 25 µg/mL
- MIC [8, 13]: 100 µg/mL
- MIC [10, 14]: 8 to 13 µg/mL
- Minimum biofilm disruption concentration [2]: 2 to 4 mg/mL
- biofilm disruption activity [3]: biofilm disruption activity
